Results on 23 compounds are retold here after the SangsterLogP compilation.

Structures are written as SMILES.

As usually defined, the logP is a log measure of how a compound divides between an organic and an aqueous phase. Read a high logP as a more lipophilic compound. `Nc1ccc(Oc2ccccc2)cc1` gave a logP of 2.36. Take `CC(=O)Nc1ccccc1O`: the logP is 0.72.

In turn, `CSc1ccccc1N` showed a logP of 1.2. Compound `COc1ccccc1N(C)C` displayed a logP of 1.63. `CSc1ccc(C(=O)O)cc1` returned a logP of 2.74. `N#Cc1ccccc1O` had a logP of 1.59. `CC(=O)Oc1cccc(C)c1` gave a logP of 2.09. In turn, `CC(=O)Oc1ccc(C)cc1` registered a logP of 2.11.

Turning to `CS(=O)(=O)c1ccc(N)cc1`, the logP was -0.12. Then `Cc1cccc(N(C)C)c1`, with 2.8; and `CC(=O)Nc1cccc(O)c1`, with 0.73. `O=Cc1ccc(OCC(=O)O)cc1` had a logP of 0.79. Compound `COc1ccc(N(C)C)cc1` registered a logP of 1.42. Then `CC(=O)Nc1ccccc1C(=O)O`, with 1.73; and `COc1ccccc1Oc1ccccc1`, with 2.92; and `O=C(O)c1ccc(Oc2ccccc2)cc1`, with 3.21.

The compound `Cc1ccccc1C=O` had a logP of 2.26. `CSc1cccc(N)c1` had a logP of 1.45. Then `CSc1ccc(O)cc1`, with 1.78. `O=C(O)Cc1ccc(C(F)(F)F)cc1`: the log partition coefficient (logP) turned out to be 2.45. The value for `Oc1cccc(-c2ccccc2)c1` was 3.23. The value for `CS(=O)(=O)c1ccc(C(=O)O)cc1` was 0.67. Then `Nc1ccccc1Oc1ccccc1`, with 2.46.
